Experimental data published in patent US20240148701A1, “WOULD HEALING METHODS” (The University of Sydney, priority 2021, published 2024).

What was measured:
[1] = tested on: superoxide; assay: Superoxide generation by lucigenin enhanced chemiluminescence in hind limb tissue; format: in vivo, mouse; settings: after 14 days of infusion
Protocol: Hind limb tissue including the gastrocnemius and adductor muscles were isolated and collected at 14 or 28 days. Tissues were separated and implanted in OCT or placed in cryovials and snap-frozen in liquid nitrogen or were fixed in 10% formalin for 24-hours and then moved to 70% ethanol for storage.
Frozen adductor tissue was prepared for lucigenin-enhanced chemiluminescence assay by homogenising in lysis buffer (250 mM sucrose in phosphate-buffered saline (mM: 129 NaCl, 7 Na2HPO4, 3 NaH2PO4·2H2O, pH 7.4, with protease inhibitors (cOmplete™ EDTA-free, Roche Diagnostics). Sample was added to opaque 96-well plates in the presence of lucigenin (20 μmol/1 N,N′-Dimethyl-9,9′-biacridinium dinitrate) and NADPH (100 μM; β-Nicotinamide adenine dinucleotide 2′-phosphate reduced tetrasodium salt hydrate). The reaction was conducted at room temperature and tracked using a luminometer (Veritas, Turner Biosystems, USA) with an average measurement taken from 20 cycles, as described in Bubb et al., (2018, Microcirulation, e12501). Replicates of each sample were treated with manganese TMPyP (Merck Millipore, Australia, a cell-permeable superoxide dismutase mimetic, 30 μmol/L), during the assay and any signal was subtracted from the total signal as non-superoxide background signal. Superoxide production was normalized to protein concentration or cell count.

[2] = tested on: human adult dermal microvascular endothelial cells (MVEC); assay: Tubule formation in human adult dermal microvascular endothelial cells; format: cell-based; settings: CL 316,243 100 ng/ml
Protocol: Human umbilical vein endothelial cells (HUVECs; Lonza C2519AS, pooled source, Australia) were grown using standard cell culture conditions in endothelial cell growth medium (EGM Plus®, containing 2% fetal bovine serum, Lonza, Australia). All cells were regularly confirmed to be mycoplasma negative. Two different pooled source cell lines were used in experiments and all were used within passages 2-4. Human adult dermal microvascular endothelial cells were also obtained from Lonza (CC-2543, Lonza Australia) and cultured as above but using endothelial growth medium 2-MV bulletkit. Endothelial colony forming cells (ECFCs) were derived from the peripheral blood of participants in the BioHEART study. This registered study (ACTRN12618001322224) complies with the Declaration of Helsinki and the study protocol and design has been approved by the Northern Sydney Local Health District Human Research Ethics Committee (HREC/17/HAWKE/343). […]
Once they were ˜70% confluent, cells were re-suspended in diluted EGM Plus® (1:3) and plated on reduced-growth factor extracellular matrix (15 mg/ml, Cultrex, Trevigen, USA) at a density of 1.5×10^4 cells/cm^2. […] Cells were incubated in an EVOS FL Auto Imaging system for 16 hours and tubule formation recorded every hour. Optimal tube formation occurred at the 8-hour timepoint; tubule number at this point was quantified manually using NIH Image J software. […]

[3] = tested on: C57BL6/J mice; assay: Hind limb ischemia in type 1 diabetes model, laser Doppler perfusion; format: in vivo, mouse
Protocol: Male C57BL6/J mice 8-10 weeks of age were obtained from Australian BioResources (Moss Vale, NSW) with 12 hour light/dark cycles and free access to water and mouse chow (Specialty Feeds, Australia). Mice were housed in groups of 2-5 in standard cages within a Physical Containment Level 2 laboratory. For in vivo angiogenesis 16 mice underwent the femoral vascular ligation model. Mice were anaesthetized with 1.5-2% isoflurane vaporized in oxygen and constant body temperature was maintained. All mice received pre-operative and 24-hour post-operative analgesia (carprofen, 5 mg/kg s.c). A small incision (˜15 mm) was made in the hind limb skin directly over the femoral vasculature. A portion of the femoral artery and vein, distal to the origin of the profunda femoris artery and proximal to the saphenous artery, were isolated and two ligations were performed using 6-0 silk sutures. The femoral artery and vein were then excised between the ligation sites 27. […] Hind limb blood flow was assessed prior to ligation (baseline) and immediately after undergoing hind limb ischemia, with subsequent imaging at day 3, 7, 10, 14, 21 and 28 post hind limb ischemia. […] The rate of reperfusion in the hind limb was calculated as a ratio of blood flow in the ischemic versus non-ischemic contralateral limb. […]

[4] = tested on: C57BL6/J mice; assay: Murine hind limb ischemia model, laser Doppler perfusion (non-diabetic mice); format: in vivo, mouse
Protocol: Male C57BL6/J mice 8-10 weeks of age were obtained from Australian BioResources (Moss Vale, NSW) with 12 hour light/dark cycles and free access to water and mouse chow (Specialty Feeds, Australia). Mice were housed in groups of 2-5 in standard cages within a Physical Containment Level 2 laboratory. For in vivo angiogenesis 16 mice underwent the femoral vascular ligation model. Mice were anaesthetized with 1.5-2% isoflurane vaporized in oxygen and constant body temperature was maintained. All mice received pre-operative and 24-hour post-operative analgesia (carprofen, 5 mg/kg s.c). A small incision (˜15 mm) was made in the hind limb skin directly over the femoral vasculature. A portion of the femoral artery and vein, distal to the origin of the profunda femoris artery and proximal to the saphenous artery, were isolated and two ligations were performed using 6-0 silk sutures. The femoral artery and vein were then excised between the ligation sites 27. An osmotic mini-pump (model 1002 [for 14 day protocols] or model 1004 [for 28 day protocols], Alzet, USA) containing either CL 316,243 (1 mg/kg/day) or vehicle (normal saline) was then implanted via the femoral skin opening and tunneled around and positioned in the dorsal flank. The mice were randomized 1:1 to treatment protocols prior to undergoing surgery. The skin was closed with non-continuous suture (Prolene 6-0, Johnson and Johnson Medical, Australia). Hind limb blood flow was assessed prior to ligation (baseline) and immediately after undergoing hind limb ischemia, with subsequent imaging at day 3, 7, 10, 14, 21 and 28 post hind limb ischemia. Some experiments were stopped at 14 days for assessment of hind limb histology and biochemistry. Software was used to analyze the perfusion flux (Moor, UK) and investigators were blinded to the treatment groups during the period of analysis. The rate of reperfusion in the hind limb was calculated as a ratio of blood flow in the ischemic versus non-ischemic contralateral limb.

Which “superoxide bioavailability in the ischemic limb” value [1] does the source give for C[C@H](Cc1ccc2c(c1)OC(C(=O)[O-])(C(=O)[O-])O2)NC[C@H](O)c1cccc(Cl)c1.[Na+].[Na+] [CL 316,243] here?
The value was “significantly lower”.

And the “angiogenesis (tubule formation) in endothelial cells from adults, dermal source” value [2]?
The value was “stimulated angiogenesis”.

And the perfusion ratio ([3]; citrate-buffer treated (non-diabetic) mice, also 14-28 days post-ischemia)?
Its perfusion ratio is “not different from vehicle controls”.

And the “greater ischemic-non-ischemic ratio (reperfusion)” value ([3]; type 1 diabetes mice, from 14 days onwards, 1 mg/kg/day s.c., vs vehicle)?
The value was ~20.

What about the “perfusion in the ischemic limbs” value ([4]; 1 mg/kg/day subcutaneous infusion, 10-14 days following ischemic injury, vs vehicle) of the same compound?
Its value is “significantly increased perfusion”.

What about the “perfusion in the non-ischemic limb” value ([4]; 1 mg/kg/day systemic infusion) of the same compound?
Its value is “increased perfusion”.

What about the “ischemic non-ischemic ratio of perfusion” value ([4]; 14 days of hind limb ischemia, vs vehicle) of the same compound?
Its value is “no differences”.
